Columns and labels:
CDK2/cyclin A2 = target: T1, CDK2/cyclin A2 (Homo sapiens, UniProt P24941); assay: Human CDK2/cyclin A2 inhibitory activity (QS S Assist CDK2/Cyclin A2_FP Kit, IMAP fluorescent polarization); format: biochemical; conditions: read-out: CDK2 Activity symbol
T1 construct: purchased Carna Biosciences, Inc. QS S Assist CDK2/Cyclin A2_FP Kit
Method in brief: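 Kit CDK2/cyclin A2 (2.5 ng/well) was reacted with kit ATP/substrate/metal in 20 mM HEPES pH 7.4, 0.01% Tween 20 and 2 mM DTT for 60 min at room temperature. IMAP binding reagent was added for 30 min, then fluorescence polarization was read at 485/535 nm. IC50 came from dose-response fitting of percent inhibition.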

CDK4/cyclin D3 = target: T2, CDK4/cyclin D3 (Homo sapiens, UniProt P11802); assay: Human CDK4/cyclin D3 inhibitory activity (QS S Assist CDK4/Cyclin D3_FP Kit, IMAP fluorescent polarization); format: biochemical; conditions: read-out: CDK4 Activity symbol
T2 construct: purchased Carna Biosciences, Inc. QS S Assist CDK4/Cyclin D3_FP Kit
Method in brief: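 Kinase reactions used kit CDK4/cyclin D3 at 12.5–25 ng/well with the kit ATP/substrate/metal mix in 20 mM HEPES (pH 7.4), 0.01% Tween20 and 2 mM DTT, run 45 min at room temperature. Phosphorylation was detected by IMAP fluorescence polarization (ex 485/em 535 nm) after 30 min binding in the dark. IC50 was fitted from percent inhibition against DMSO controls with and without enzyme.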

T2 sequence (P11802 whole entry): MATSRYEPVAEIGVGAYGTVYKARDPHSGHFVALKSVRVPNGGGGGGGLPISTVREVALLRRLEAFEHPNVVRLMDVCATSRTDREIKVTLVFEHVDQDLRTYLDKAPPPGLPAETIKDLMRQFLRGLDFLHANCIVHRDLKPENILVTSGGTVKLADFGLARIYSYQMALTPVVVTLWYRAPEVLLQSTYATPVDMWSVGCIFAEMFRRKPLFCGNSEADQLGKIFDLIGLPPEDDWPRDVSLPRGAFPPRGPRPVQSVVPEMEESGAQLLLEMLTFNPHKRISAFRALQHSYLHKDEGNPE
T2 sequence (P30281 whole entry partner): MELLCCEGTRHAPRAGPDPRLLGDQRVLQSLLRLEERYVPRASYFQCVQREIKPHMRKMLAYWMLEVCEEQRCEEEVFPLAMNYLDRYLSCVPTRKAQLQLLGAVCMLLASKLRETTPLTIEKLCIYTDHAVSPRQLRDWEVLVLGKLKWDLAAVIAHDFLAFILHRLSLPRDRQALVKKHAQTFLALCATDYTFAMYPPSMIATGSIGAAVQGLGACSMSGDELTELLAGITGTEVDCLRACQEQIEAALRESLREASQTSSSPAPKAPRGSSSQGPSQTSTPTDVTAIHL

Row | SMILES | IC50 (CDK2/cyclin A2) [nM] | IC50 (CDK4/cyclin D3) [nM]
1 | C[C@@H](O)c1cc2cnc(Nc3ccc(C(=O)N4CCN(CCO)CC4)cn3)nc2c(N2CCCCC2)n1 [Compound 308] | ≥ 100 | < 10
2 | C[C@@H](O)c1cc2cnc(Nc3ccc(C(=O)N4CCN(C)CC4)cn3)nc2c(N2CCCCC2)n1 [Compound 309] | ≥ 100 | < 10
3 | C[C@@H](O)c1cc2cnc(Nc3ccc(C(=O)N4CCOCC4)cn3)nc2c(N2CCCCC2)n1 [Compound 310] | ≥ 100 | < 10
4 | C[C@@H](O)c1cc2cnc(Nc3ccc(C(=O)N4CCC(O)CC4)cn3)nc2c(N2CCCCC2)n1 [Compound 311] | ≥ 100 | < 10
5 | C[C@@H](O)c1cc2cnc(Nc3ccc(C(=O)N4CC[C@@H](N(C)C)C4)cn3)nc2c(N2CCCCC2)n1 [Compound 312] | ≥ 100 | < 10
6 | C[C@@H](O)c1cc2cnc(Nc3ccc(C(=O)N4CC[C@H](N(C)C)C4)cn3)nc2c(N2CCCCC2)n1 [Compound 313] | ≥ 100 | < 10
7 | C[C@@H](O)c1cc2cnc(Nc3ccc(C(=O)N4CCS(=O)(=O)CC4)cn3)nc2c(N2CCCCC2)n1 [Compound 314] | ≥ 100 | < 10
8 | C[C@@H](O)c1cc2cnc(Nc3ccc(C(=O)N4CCC(N(C)C)CC4)cn3)nc2c(N2CCCCC2)n1 [Compound 315] | ≥ 100 | < 10
9 | C[C@@H](O)c1cc2cnc(Nc3ccc(C(=O)N(C)CCN(C)C)cn3)nc2c(N2CCCCC2)n1 [Compound 316] | ≥ 100 | < 10
10 | CCN1CCN(C(=O)c2ccc(Nc3ncc4cc([C@@H](C)O)nc(N5CCCCC5)c4n3)nc2)CC1 [Compound 317] | ≥ 100 | < 10
11 | C[C@@H](O)c1cc2cnc(Nc3ccc(C(=O)N4CCN(C)CC4)cn3)nc2c(N2CCCC2)n1 [Compound 318] | ≥ 100 | < 10
12 | C[C@@H](O)c1cc2cnc(Nc3ccc(C(=O)N4CCN(C)CC4)cn3)nc2c(N2CCCCCC2)n1 [Compound 319] | 10 to 100 | < 10
13 | C[C@@H](O)c1cc2cnc(Nc3ccc(C(=O)N4CCN(C)CC4)cn3)nc2c(N2CCC(F)CC2)n1 [Compound 320] | ≥ 100 | < 10
14 | CC(O)c1cc2cnc(Nc3ccc(CN4CCN(C)CC4)cn3)nc2c(N2CC3CCC(C2)O3)n1 (stereo not shown) [Compound 321] | ≥ 100 | < 10
15 | C[C@@H](O)c1cc2cnc(Nc3ccc(CN4CCN(C)CC4)cn3)nc2c(N2CCOCC2(C)C)n1 [Compound 322] | ≥ 100 | < 10
16 | O=C1CNCCCN1c1ccc(Nc2ncc3cc(C4COC4)nc(N4CCCCC4)c3n2)nc1 [Compound 323] | ≥ 100 | < 10
17 | C[C@@H](O)c1cc2cnc(Nc3ccc(N4CC5(C4)CN(C4COC4)C5)nn3)nc2c(N2CCCCC2)n1 [Compound 324] | ≥ 100 | < 10
18 | C[C@@H](O)c1cc2cnc(Nc3ccc(CN4CCC5(CC4)COC5)cn3)nc2c(N2CCCCC2)n1 [Compound 325] | ≥ 100 | < 10
19 | C[C@@H](O)c1cc2cnc(Nc3ccc(CN4CCC(C#N)CC4)cn3)nc2c(N2CCCCC2)n1 [Compound 326] | ≥ 100 | < 10
20 | Cc1nc(Nc2ncc3cc([C@@H](C)O)nc(N4CCCCC4)c3n2)ccc1N1CC2(C1)CN(C1COC1)C2 [Compound 327] | ≥ 100 | < 10
21 | Cc1nc(Nc2ncc3cc([C@@H](C)O)nc(N4CCCCC4)c3n2)ccc1N1CCN(C2CN(CCO)C2)CC1 [Compound 328] | ≥ 100 | < 10
22 | CC(O)c1cc2cnc(Nc3ccc(N4CCCNCC4=O)cn3)nc2c(N2C3CCCC2CC3)n1 (stereo not shown) [Compound 329] | 10 to 100 | < 10
23 | C[C@@H](O)c1cc2cnc(Nc3ccc4c(n3)CCN(C(=O)Cc3cccnc3)C4)nc2c(N2CCCCC2)n1 [Compound 330] | ≥ 100 | 10 to 100
24 | C[C@@H](O)c1cc2cnc(Nc3ccc4c(n3)CCN(C(=O)Cn3cccn3)C4)nc2c(N2CCCCC2)n1 [Compound 331] | ≥ 100 | 10 to 100
25 | C[C@@H](O)c1cc2cnc(Nc3ccc4c(n3)CCN(C(=O)Cn3cncn3)C4)nc2c(N2CCCCC2)n1 [Compound 332] | ≥ 100 | 10 to 100
26 | C[C@@H](O)c1cc2cnc(Nc3ccc4c(n3)CCN(C(=O)Cn3cnnc3)C4)nc2c(N2CCCCC2)n1 [Compound 333] | ≥ 100 | < 10
27 | Cc1nc(Nc2ncc3cc([C@@H](C)O)nc(N4CCCCC4)c3n2)ccc1N1CCN(C2CN(C)C2)CC1 [Compound 334] | ≥ 100 | < 10
28 | C[C@@H](O)c1cc2cnc(Nc3ccc4c(n3)CCN(C(=O)Cc3ccccn3)C4)nc2c(N2CCCCC2)n1 [Compound 335] | ≥ 100 | 10 to 100
29 | C[C@@H](O)c1cc2cnc(Nc3ccc4c(n3)CCN(C(=O)Cn3ccnn3)C4)nc2c(N2CCCCC2)n1 [Compound 336] | ≥ 100 | 10 to 100

From patent US11084814B2, “Pyrido[3, 4-d]pyrimidine derivative and pharmaceutically acceptable salt thereof” (Teijin Pharma Limited, priority 2016, dated 2021)
